Measured values from ChEMBL document CHEMBL5325426, “Structure-based discovery of potent USP28 inhibitors derived from Vismodegib” (Eur J Med Chem, 2023).
The source made the active and inactive calls.

What was measured:
[1] = target: Ubiquitin carboxyl-terminal hydrolase 9X (Homo sapiens) (UniProt Q93008); test: Inhibition of USP9X (1151 to 1970 residues) (unknown origin) expressed in Escherichia coli BL21 (DE3) using Ub-AMC as substrate at 5 uM by fluorescence based analysis
[2] = target: T1, Ubiquitin carboxyl-terminal hydrolase isozyme L3 (Homo sapiens) (UniProt P15374); test: Inhibition of UCHL3 (unknown origin) expressed in Escherichia coli BL21 (DE3) using Ub-AMC as substrate at 5 uM by fluorescence based analysis
T1 sequence (whole entry): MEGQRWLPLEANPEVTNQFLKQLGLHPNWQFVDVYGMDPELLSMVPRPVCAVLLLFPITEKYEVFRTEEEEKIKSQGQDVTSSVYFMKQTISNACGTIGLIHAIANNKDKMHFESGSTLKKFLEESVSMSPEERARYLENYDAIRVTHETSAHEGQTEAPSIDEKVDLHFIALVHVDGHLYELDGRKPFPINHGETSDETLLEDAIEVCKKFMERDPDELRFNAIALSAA

[3] = target: T2, Ubiquitin carboxyl-terminal hydrolase 25 (Homo sapiens) (UniProt Q9UHP3); test: Inhibition of USP25 (unknown origin) expressed in Escherichia coli BL21 (DE3) using Ub-AMC as substrate at 5 uM by fluorescence based analysis
T2 sequence (whole entry): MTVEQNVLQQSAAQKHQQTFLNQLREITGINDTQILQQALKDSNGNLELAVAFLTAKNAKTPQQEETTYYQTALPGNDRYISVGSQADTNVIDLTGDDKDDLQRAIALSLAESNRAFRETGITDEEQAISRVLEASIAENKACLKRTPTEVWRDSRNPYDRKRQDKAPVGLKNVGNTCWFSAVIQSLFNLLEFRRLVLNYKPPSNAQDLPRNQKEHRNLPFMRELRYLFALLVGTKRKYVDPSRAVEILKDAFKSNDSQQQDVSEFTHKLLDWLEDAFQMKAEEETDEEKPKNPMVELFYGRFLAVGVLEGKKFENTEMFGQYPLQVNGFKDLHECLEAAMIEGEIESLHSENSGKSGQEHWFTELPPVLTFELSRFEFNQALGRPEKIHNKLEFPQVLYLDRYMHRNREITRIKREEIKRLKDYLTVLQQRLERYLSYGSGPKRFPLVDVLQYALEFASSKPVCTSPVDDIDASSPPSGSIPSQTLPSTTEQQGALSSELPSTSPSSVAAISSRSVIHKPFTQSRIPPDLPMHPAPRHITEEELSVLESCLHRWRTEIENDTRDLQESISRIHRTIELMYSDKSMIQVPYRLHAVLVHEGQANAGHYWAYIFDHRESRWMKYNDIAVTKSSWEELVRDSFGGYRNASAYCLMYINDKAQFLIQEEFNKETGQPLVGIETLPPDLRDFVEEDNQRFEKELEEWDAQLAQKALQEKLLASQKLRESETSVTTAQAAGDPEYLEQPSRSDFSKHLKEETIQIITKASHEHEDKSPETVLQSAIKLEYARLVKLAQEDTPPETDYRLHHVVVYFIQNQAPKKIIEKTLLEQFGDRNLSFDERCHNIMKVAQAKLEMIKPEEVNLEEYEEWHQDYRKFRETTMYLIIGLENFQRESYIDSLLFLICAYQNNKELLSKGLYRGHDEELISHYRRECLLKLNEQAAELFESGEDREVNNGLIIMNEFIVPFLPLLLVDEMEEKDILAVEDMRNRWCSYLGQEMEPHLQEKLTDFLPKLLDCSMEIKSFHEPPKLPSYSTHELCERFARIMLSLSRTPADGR

[4] = tested on: LS174T; test: Antiproliferative activity against human LS174T cells assessed as cell growth inhibition at 10 to 30 uM incubated for 3 days in presence of Regorafenib by SRB assay; format: functional, cell-based; details: dose 10-30 µM, time 3.0 day
[5] = target: T3, Ubiquitin carboxyl-terminal hydrolase 2 (Homo sapiens) (UniProt O75604); test: Inhibition of USP2 (258 to 605 residues) (unknown origin) expressed in Escherichia coli BL21 (DE3) using Ub-AMC as substrate at 5 uM by fluorescence based analysis
T3 sequence (whole entry): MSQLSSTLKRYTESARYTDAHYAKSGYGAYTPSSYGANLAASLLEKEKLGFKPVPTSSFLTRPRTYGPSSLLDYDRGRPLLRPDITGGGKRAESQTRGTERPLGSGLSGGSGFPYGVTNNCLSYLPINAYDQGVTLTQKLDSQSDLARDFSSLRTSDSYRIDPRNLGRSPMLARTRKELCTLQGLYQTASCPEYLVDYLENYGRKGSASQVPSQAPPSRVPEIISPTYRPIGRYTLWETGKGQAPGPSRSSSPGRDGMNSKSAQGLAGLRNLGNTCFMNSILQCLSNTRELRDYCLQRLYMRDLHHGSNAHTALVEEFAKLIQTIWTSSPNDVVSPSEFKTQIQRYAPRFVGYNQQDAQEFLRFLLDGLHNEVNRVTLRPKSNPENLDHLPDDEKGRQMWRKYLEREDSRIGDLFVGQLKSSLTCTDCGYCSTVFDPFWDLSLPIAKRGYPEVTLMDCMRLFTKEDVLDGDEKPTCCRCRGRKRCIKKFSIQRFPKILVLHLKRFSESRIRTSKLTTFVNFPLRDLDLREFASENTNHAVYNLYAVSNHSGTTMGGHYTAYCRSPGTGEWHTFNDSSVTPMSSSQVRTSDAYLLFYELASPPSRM

Chain of Ubiquitin carboxyl-terminal hydrolase 9X (Homo sapiens) (Q93008 whole entry, the tested form may be a part): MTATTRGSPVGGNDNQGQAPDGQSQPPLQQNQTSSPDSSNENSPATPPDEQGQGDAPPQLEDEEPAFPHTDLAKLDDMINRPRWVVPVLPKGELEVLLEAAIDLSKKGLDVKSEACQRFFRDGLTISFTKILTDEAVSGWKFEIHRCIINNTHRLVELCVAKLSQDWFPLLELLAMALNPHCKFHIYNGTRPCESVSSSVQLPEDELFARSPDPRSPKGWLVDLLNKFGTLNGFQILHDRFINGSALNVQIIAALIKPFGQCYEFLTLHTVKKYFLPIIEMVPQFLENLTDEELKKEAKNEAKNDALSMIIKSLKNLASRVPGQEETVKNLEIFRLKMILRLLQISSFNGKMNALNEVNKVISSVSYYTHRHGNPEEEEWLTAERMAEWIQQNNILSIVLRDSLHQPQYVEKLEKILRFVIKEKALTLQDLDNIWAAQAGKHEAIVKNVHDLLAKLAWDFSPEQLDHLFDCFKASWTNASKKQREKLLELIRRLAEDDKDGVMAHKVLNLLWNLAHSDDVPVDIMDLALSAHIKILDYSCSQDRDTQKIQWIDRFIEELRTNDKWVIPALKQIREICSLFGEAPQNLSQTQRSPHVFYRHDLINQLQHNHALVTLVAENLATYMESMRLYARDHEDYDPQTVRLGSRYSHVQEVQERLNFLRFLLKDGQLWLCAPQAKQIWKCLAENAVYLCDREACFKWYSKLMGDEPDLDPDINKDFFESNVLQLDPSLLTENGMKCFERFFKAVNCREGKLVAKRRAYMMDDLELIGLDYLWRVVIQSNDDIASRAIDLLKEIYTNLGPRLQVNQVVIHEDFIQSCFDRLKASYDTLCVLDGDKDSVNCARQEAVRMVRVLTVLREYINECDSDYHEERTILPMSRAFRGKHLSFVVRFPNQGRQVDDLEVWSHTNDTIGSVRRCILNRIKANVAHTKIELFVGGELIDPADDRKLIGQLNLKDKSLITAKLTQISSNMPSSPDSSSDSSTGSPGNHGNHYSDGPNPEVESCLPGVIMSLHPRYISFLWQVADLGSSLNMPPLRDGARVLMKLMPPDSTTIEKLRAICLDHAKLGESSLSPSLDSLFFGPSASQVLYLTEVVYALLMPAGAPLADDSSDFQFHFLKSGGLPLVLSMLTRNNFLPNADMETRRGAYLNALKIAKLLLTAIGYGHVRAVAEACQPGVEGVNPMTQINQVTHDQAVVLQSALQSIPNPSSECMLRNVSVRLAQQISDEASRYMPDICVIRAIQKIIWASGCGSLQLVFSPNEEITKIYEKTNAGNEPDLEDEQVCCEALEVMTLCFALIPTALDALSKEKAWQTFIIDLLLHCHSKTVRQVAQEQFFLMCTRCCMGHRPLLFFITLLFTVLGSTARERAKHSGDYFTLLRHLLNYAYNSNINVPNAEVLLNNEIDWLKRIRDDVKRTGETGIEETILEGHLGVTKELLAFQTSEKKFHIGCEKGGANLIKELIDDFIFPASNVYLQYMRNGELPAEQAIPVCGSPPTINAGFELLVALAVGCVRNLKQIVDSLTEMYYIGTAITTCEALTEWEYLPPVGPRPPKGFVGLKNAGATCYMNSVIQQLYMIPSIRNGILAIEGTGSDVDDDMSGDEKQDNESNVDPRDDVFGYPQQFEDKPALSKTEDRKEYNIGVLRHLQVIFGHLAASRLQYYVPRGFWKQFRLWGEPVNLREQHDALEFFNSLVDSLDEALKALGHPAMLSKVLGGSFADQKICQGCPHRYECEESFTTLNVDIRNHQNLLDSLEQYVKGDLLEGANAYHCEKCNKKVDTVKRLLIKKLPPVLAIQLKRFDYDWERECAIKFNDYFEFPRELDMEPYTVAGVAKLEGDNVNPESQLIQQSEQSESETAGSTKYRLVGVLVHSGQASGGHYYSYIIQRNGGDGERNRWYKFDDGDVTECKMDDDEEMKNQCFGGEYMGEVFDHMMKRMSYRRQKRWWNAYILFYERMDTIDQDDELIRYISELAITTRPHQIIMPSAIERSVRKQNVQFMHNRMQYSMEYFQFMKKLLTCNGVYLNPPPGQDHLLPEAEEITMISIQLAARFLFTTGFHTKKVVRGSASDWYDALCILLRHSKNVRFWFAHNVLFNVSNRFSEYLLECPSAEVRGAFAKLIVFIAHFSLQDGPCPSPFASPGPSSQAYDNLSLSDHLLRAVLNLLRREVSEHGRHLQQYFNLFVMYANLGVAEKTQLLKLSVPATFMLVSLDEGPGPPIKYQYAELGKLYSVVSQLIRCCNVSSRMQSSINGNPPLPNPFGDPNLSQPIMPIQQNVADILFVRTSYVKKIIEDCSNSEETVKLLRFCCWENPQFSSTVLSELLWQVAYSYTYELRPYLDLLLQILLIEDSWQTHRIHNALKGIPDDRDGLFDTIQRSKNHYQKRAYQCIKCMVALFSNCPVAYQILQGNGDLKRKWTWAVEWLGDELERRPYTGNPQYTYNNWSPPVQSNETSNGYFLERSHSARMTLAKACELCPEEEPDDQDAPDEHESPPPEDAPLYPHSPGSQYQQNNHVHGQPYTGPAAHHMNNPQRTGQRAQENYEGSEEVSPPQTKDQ

CS(=O)(=O)c1ccc(C(=O)Nc2ccc(Cl)c(-c3ccc4c(c3)CCNC4)c2)c(Cl)c1
active: inhibition [1] | inhibition [2] | inhibition [3] | Activity [4] | inhibition [5]

CS(=O)(=O)c1ccc(C(=O)Nc2ccc(Cl)c(-c3ccc4c(c3)CNC4)c2)c(Cl)c1
active: inhibition [1] | inhibition [2] | inhibition [3] | Activity [4] | inhibition [5]

CS(=O)(=O)c1ccc(C(=O)Nc2ccc(Cl)c(-c3ccc(C4(N)CC4)cc3)c2)c(Cl)c1
active: inhibition [1] | inhibition [2] | inhibition [3] | Activity [4] | inhibition [5]
